The species entered for experiment [1] is Rattus norvegicus. In words: Maximal activity to stimulate lipogenisis in rat adipocytes compared to the maximal effect of insulin. It counts as functional.
For experiment [2], the species on record is Rattus norvegicus. In words: Value of Kd measured against rat Adipocytes. It counts as functional, organism-based.

Broadly, the Kd is the concentration at which binding is half-saturated. High values mean lower affinity, low ones higher affinity. Take `NC1[C@H](O[C@H]2C(O)C(O)[C@@H](O)C3OP(=O)(O)O[C@H]32)OC(CO)[C@@H](O)[C@@H]1O` (some centres undefined): the Activity in the experiment listed under Rattus norvegicus [1] stood at 24%. In the experiment filed under Rattus norvegicus [2], this molecule registered a Kd of 15.9 µM.

The molecule `Nc1c(S(=O)(=O)[O-])cc2c3c(cc(S(=O)(=O)[O-])cc13)C(=O)N(CCNC(=O)CSC[C@@H]1O[C@@H](O[C@H]3[C@H](O)[C@H](O)[C@@H](O)[C@@H]4OP(=O)(O)O[C@@H]34)[C@@H](N)[C@@H](O)[C@@H]1O)C2=O.[K+].[K+]` yielded an Activity in the experiment listed under Rattus norvegicus [1] of 47%. In the experiment listed under Rattus norvegicus [2], binding was put at a Kd of 12 µM.

(Values after ChEMBL document CHEMBL1143525, “A fluorescent inositol phosphate glycan stimulates lipogenesis in rat adipocytes by extracellular activation alone” (Bioorg Med Chem Lett, 2005).)
